In patent US8841291B2, “Selective hydroxamic acid based MMP-12 and MMP-13 inhibitors” (Novartis AG, priority 2008, dated 2014):
Where two headings read alike, the source gives them in different places.

What was measured:
Collagenase-3 (MMP-13) = Collagenase-3 (MMP-13) (Homo sapiens, UniProt P45452); assay: Collagenase-3 (MMP-13) inhibitory activity, fluorogenic peptide substrate assay; type: biochemical
Procedure: (§1) Stock solutions of inhibitors (0.03 mM-3 mM) are also prepared in DMSO. The inhibitors are diluted into the assay solutions, and the controls use an equal volume of DMSO so that the final DMSO concentration from the inhibitor and substrate dilutions in all assays is 1.0%. Assays are performed in an assay buffer (100 mM sodium chloride, 10 μM ZnCl. Sub 2, 10 mM CaCl2, 100 mM Tris-Cl pH7.5, 0.05% Brij-35), containing 1.0% DMSO from the substrate and inhibitor additions. The substrate concentration used in the assays is 5 μM. The assays are carried out at 20-25° C. […] The reaction mixtures are added in duplicate into appropriate wells of a 384-well assay plate. The reaction mixtures are preincubated with the inhibitors for 60 minutes The reactions are started by the addition of MMP substrate, and the fluorescence intensity changes are measured after 60 minutes The apparent enzyme activity in the presence of an inhibitor is then compared with that in the absence of any inhibitor to determine the inhibition effect of the inhibitor.
Collagenase-3 (MMP-13) inhibitory activity is determined as described above. Recombinant pro-collagenase-3 is activated with 1 mM APMA, and stored in the assay buffer after extensive dialysis in the assay buffer.

Gelatinase (MMP-2) = target: T1, Gelatinase (MMP-2) (Homo sapiens, UniProt P08253); assay: Gelatinase (MMP-2) inhibitory activity, fluorogenic peptide substrate assay; type: biochemical
T1 sequence (P08253 110-660): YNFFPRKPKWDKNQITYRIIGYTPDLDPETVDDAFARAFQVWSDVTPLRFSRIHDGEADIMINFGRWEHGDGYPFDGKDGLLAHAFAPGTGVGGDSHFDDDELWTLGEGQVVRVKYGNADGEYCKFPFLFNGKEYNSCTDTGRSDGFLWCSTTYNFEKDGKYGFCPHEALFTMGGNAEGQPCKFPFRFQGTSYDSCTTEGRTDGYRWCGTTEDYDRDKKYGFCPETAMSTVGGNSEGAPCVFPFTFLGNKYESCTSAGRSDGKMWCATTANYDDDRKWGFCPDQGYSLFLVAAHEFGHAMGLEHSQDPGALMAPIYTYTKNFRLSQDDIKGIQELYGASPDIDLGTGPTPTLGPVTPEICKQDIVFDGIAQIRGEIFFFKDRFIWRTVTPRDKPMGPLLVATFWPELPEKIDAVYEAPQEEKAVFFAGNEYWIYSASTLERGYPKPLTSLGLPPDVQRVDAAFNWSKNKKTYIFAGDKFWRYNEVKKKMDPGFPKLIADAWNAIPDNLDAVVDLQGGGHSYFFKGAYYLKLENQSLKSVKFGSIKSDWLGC
Procedure: as §1

[1] = recombinant pro-collagenase-3 activated with 1 mM APMA, read-out: MMP13 IC50
[2] = substrate 5 μM, 60 min preincubation, 20-25° C., read-out: MMP2 IC50

IC50 (Collagenase-3 (MMP-13); [1]) [nM]	IC50 (Gelatinase (MMP-2); [2]) [nM]	IC50 (Collagenase-3 (MMP-13); read-out: IC50 (Collagenase-3 (MMP-13) inhibitory activity)) [nM]	IC50 (Gelatinase (MMP-2); read-out: IC50 (Gelatinase (MMP-2) inhibitory activity)) [nM]	SMILES
16.2	63.5			O=C(NO)[C@H]1CC=CCCN1S(=O)(=O)c1ccc2ccccc2c1 [Example 88, (R)-1-(Naphthalene-2-sulfonyl)-2,3,6,7-tetrahydro-1H-azepine-2-carboxylic acid hydroxyamide]
6950	22200			O=C(NO)[C@H]1C2CCC(CC2)N1S(=O)(=O)c1ccc2ccccc2c1 [Example 91, (R)-2-(Naphthalene-2-sulfonyl)-2-aza-bicyclo[2.2.2]octane-3-carboxylic acid hydroxyamide]
0.7	50.7			C=CCCN([C@H](CC=C)C(=O)NO)S(=O)(=O)c1ccc2ccccc2c1 [Example 4, (R)-2-[But-3-enyl-(naphthalene-2-sulfonyl)-amino]-pent-4-enoic acid hydroxyamide]
< 0.3	< 0.3			CC(C)CCN([C@@H](C(=O)NO)C1CCN(C(=O)OC(C)(C)C)CC1)S(=O)(=O)c1ccc2ccccc2c1 [Example 82, 4-{Hydroxycarbamoyl-[(3-methyl-butyl)-(naphthalene-2-sulfonyl)-amino]-methyl}-piperidine-1-carboxylic acid tert-butyl ester]
95.7	853			O=C(NO)[C@H]1CC=CCN1S(=O)(=O)c1cnc2ccccc2c1 [Example 72, (R)-1-(Quinoline-3-sulfonyl)-1,2,3,6-tetrahydro-pyridine-2-carboxylic acid hydroxyamide]
1	82.2			CC(C)[C@H](C(=O)NO)N(CCCc1ccccc1)S(=O)(=O)c1ccc2cc(N)ccc2c1 [Example 32, 2-[(6-Amino-naphthalene-2-sulfonyl)-(3-phenyl-propyl)-amino]-N-hydroxy-3-methyl-butyramide]
3.1	81.3			CC(=O)Nc1ccc2cc(S(=O)(=O)N(CCC(C)C)[C@@H](C(=O)NO)C(C)C)ccc2c1 [Example 55, 2-[(6-Acetylamino-naphthalene-2-sulfonyl)-(3-methyl-butyl)-amino]-N-hydroxy-3-methyl-butyramide]
2.1	61.2			CC(C)[C@H](C(=O)NO)N(CCOc1ccccc1)S(=O)(=O)c1ccc2ccccc2c1 [Example 30, N-(2-phenoxyethyl)-N-(naphthalene-2-sulfonyl)-D-valine hydroxamic acid]
1.7	18.6			O=C(NO)[C@H]1CC=CCN1S(=O)(=O)c1ccc2ccccc2c1 [Example 26, (R)-1-(Naphthalene-2-sulfonyl)-1,2,3,6-tetrahydro-pyridine-2-carboxylic acid hydroxyamide]
0.3	12.1			CSCC[C@H](C(=O)NO)N(CCC(C)C)S(=O)(=O)c1ccc2ccccc2c1 [Example 20, (R)—N-Hydroxy-2-[(3-methyl-butyl)-(naphthalene-2-sulfonyl)-amino]-4-methylsulfanyl-butyramide]
13.9	655			COc1cccc(OCCN([C@@H](C(=O)NO)C(C)C)S(=O)(=O)c2ccc3ccccc3c2)c1 [Example 46, (R)—N-Hydroxy-2-[[2-(3-methoxy-phenoxy)-ethyl]-(naphthalene-2-sulfonyl)-amino]-3-methyl-butyramide]
7.3	128			C=CCOc1ccc2cc(S(=O)(=O)N(CCC(C)C)[C@@H](C(=O)NO)C(C)C)ccc2c1 [Example 66, 2-[(6-Allyloxy-naphthalene-2-sulfonyl)-(3-methyl-butyl)-amino]-N-hydroxy-3-methyl-butyramide]
2.1	19.9			COc1c(S(=O)(=O)N2CC=CC[C@@H]2C(=O)NO)ccc2ccccc12 [Example 78, (R)-1-(1-Methoxy-naphthalene-2-sulfonyl)-1,2,3,6-tetrahydro-pyridine-2-carboxylic acid hydroxyamide]
135	770			O=C(NO)[C@H]1[C@@H]2CCCC[C@@H](C2)N1S(=O)(=O)c1ccc2ccccc2c1 [Example 83, 7-(Naphthalene-2-sulfonyl)-7-aza-bicyclo[4.2.1]nonane-8-carboxylic acid hydroxyamide]
2260	2860			CC(C)CCN(C(C)(C)C(=O)NO)S(=O)(=O)c1ccc2ccccc2c1 [Example 65, N-Hydroxy-2-methyl-2-[(3-methyl-butyl)-(naphthalene-2-sulfonyl)-amino]-propionamide]
1310	2900			CC(=O)Nc1ccc2cc(S(=O)(=O)N(CCCc3ccccc3)[C@@H](C(=O)NO)C(C)C)ccc2c1 [Example 34, 2-[(6-Acetylamino-naphthalene-2-sulfonyl)-(3-phenyl-propyl)-amino]-N-hydroxy-3-methyl-butyramide]
118	779	~113	55	CC(C)CCN([C@@H](C(=O)NO)C(C)C)S(=O)(=O)c1ccc2ccccc2c1Cl [Example 80, 2-[(1-Chloro-naphthalene-2-sulfonyl)-(3-methyl-butyl)-amino]-N-hydroxy-3-methyl-butyramide]
10.5	54.7			O=C(NO)[C@H]1CC=CCN1S(=O)(=O)c1ccc2ncccc2c1 [Example 63, (R)-1-(Quinoline-6-sulfonyl)-1,2,3,6-tetrahydro-pyridine-2-carboxylic acid hydroxyamide]
0.5	22.8			CC(=O)Nc1ccc2ccc(S(=O)(=O)N(CCC(C)C)[C@@H](C(=O)NO)C(C)C)cc2c1 [Example 61, 2-[(7-Acetylamino-naphthalene-2-sulfonyl)-(3-methyl-butyl)-amino]-N-hydroxy-3-methyl-butyramide]
35	402			CC(C)CCN(C1(C(=O)NO)CC1)S(=O)(=O)c1ccc2ccccc2c1 [Example 73, 1-[(3-Methyl-butyl)-(naphthalene-2-sulfonyl)-amino]-cyclopropanecarboxylic acid hydroxyamide]
118	> 300			Cc1ccc(Nc2ccc3cc(S(=O)(=O)N(Cc4ccccc4)[C@@H](C(=O)NO)C(C)C)ccc3c2)cc1 [Example 43, 2-[Benzyl-(6-p-tolylamino-naphthalene-2-sulfonyl)-amino]-N-hydroxy-3-methyl-butyramide]
< 0.3	50.7			CC1(C)SCCN(S(=O)(=O)c2ccc3ccccc3c2)[C@H]1C(=O)NO [Example 90]
1.1	51.8			COc1c(S(=O)(=O)N(CCC(C)C)[C@@H](C(=O)NO)C(C)C)ccc2ccccc12 [Example 79, (R)—N-Hydroxy-2-[(1-methoxy-naphthalene-2-sulfonyl)-(3-methyl-butyl)-amino]-3-methyl-butyramide]
132	975			O=C(NO)[C@H]1CCCCN1S(=O)(=O)c1cnc2ccccc2c1 [Example 50, (R)-1-(Quinoline-3-sulfonyl)-piperidine-2-carboxylic acid hydroxyamide]
153	157			CS(=O)(=O)CCC(NS(=O)(=O)c1ccc2ccccc2c1)C(=O)NO (centres unmarked) [Example 18, N-Hydroxy-4-methanesulfonyl-2-(naphthalene-2-sulfonylamino)-butyramide]
0.9	12.5			CC1=CC[C@H](C(=O)NO)N(S(=O)(=O)c2ccc3ccccc3c2)C1 [Example 60, (R)-5-Methyl-1-(naphthalene-2-sulfonyl)-1,2,3,6-tetrahydro-pyridine-2-carboxylic acid hydroxyamide]
116	2650			CC(C)[C@H](C(=O)NO)N(CCOc1ccc(Cl)cc1)S(=O)(=O)c1ccc2ccccc2c1 [Example 58, (R)-2-[[2-(4-Chloro-phenoxy)-ethyl]-(naphthalene-2-sulfonyl)-amino]-N-hydroxy-3-methyl-butyramide]
> 30000	> 30000			CC(=O)N(CCC(C)C)c1ccc2ccc(S(=O)(=O)N(CCC(C)C)[C@@H](C(=O)NO)C(C)C)cc2c1 [Example 71, 2-[{7-[Acetyl-(3-methyl-butyl)-amino]-naphthalene-2-sulfonyl}-(3-methyl-butyl)-amino]-N-hydroxy-3-methyl-butyramide]
761	793			CC(C)(NS(=O)(=O)c1ccc2ccccc2c1)C(=O)NO [Example 12, N-Hydroxy-2-methyl-2-(naphthalene-2-sulfonylamino)-propionamide]
50.9	92.7			O=C(NO)C(NS(=O)(=O)c1ccc2ccccc2c1)C1CCOCC1 (centres unmarked) [Example 11, N-Hydroxy-2-(naphthalene-2-sulfonylamino)-2-(tetrahydro-pyran-4-yl)-acetamide]
